The species named for test [1] is Mustela putorius furo. The test is described as follows: Inotropic activity as dose required to cause 20% positive or negative change in contractile force of papillary muscle from ferret (F). The test is classed as functional, Muscle tissue.
In test [2] the target is cAMP phosphodiesterase (Canis familiaris). The test is described as follows: Inhibition of canine cardiac cAMP phosphodiesterase (cAMP-PDE).
The species named for test [3] is Mustela putorius furo. Kind of test: Inotropic activity as dose required to cause 20% positive or negative change in contractile force of papillary muscle from ferret (F). The following applies: Muscle tissue. The test is classed as functional.
Test [4] has as its system Canis familiaris. Kind of test: Equieffective dose for contractility in anesthetized dogs for a maximum dose of 3.0 mg/kg. Values Ranges From:0.1-0.4. The test is classed as functional, Canis lupus familiaris.
In test [5] the test system is Canis familiaris. The test is described as follows: Equieffective dose for mean arterial pressure in anesthetized dogs for a maximum dose of 3.0 mg/kg. Values Ranges From:0.1-1.4. The test is classed as functional, Canis lupus familiaris, Artery.
The subject of test [6] is Canis familiaris. The test is described as follows: Equieffective dose for heart rate in anesthetized dogs for a maximum dose of 3.0 mg/kg. Values Ranges From:0.7-2. The class given is functional, Canis lupus familiaris.
For test [7], the system named is Canis familiaris. The test is described as follows: Equieffective dose for mean arterial pressure in anesthetized dogs for a maximum dose of 3.0 mg/kg. Values Ranges From :2.0. The test is classed as functional, Canis lupus familiaris, Artery.
Test [8] deals with Canis familiaris. Kind of test: Equieffective dose for contractility in anesthetized dogs for a maximum dose of 3.0 mg/kg. Values Ranges From :0.2-1.0. The test is classed as functional, Canis lupus familiaris.
For test [9], the system named is Canis familiaris. Kind of test: Equieffective dose for heart rate in anesthetized dogs for a maximum dose of 3.0 mg/kg. Values Ranges From :0.3-1.0. The test is classed as functional, Canis lupus familiaris.
In test [10] the test system is Canis familiaris. The test is described as follows: Equieffective dose for mean arterial pressure in anesthetized dogs for a maximum dose of 3.0 mg/kg. Values Ranges From :0.6-1.5. The test is classed as functional, Canis lupus familiaris, Artery.
For test [11], the system named is Canis familiaris. The test is described as follows: Equieffective dose for contractility in anesthetized dogs for a maximum dose of 3.0 mg/kg. Values Ranges From :0.05-0.9. The test is classed as functional, Canis lupus familiaris.
Test [12] deals with Canis familiaris. Kind of test: Equieffective dose for heart rate in anesthetized dogs for a maximum dose of 3.0 mg/kg. Values Ranges From :0.08-0.6. The test is classed as functional, Canis lupus familiaris.
For test [13], the system named is Canis familiaris. The test is described as follows: Equieffective dose for mean arterial pressure in anesthetized dogs for a maximum dose of 3.0 mg/kg. Values Ranges From: 0.2-2.4. The class given is functional, Canis lupus familiaris, Artery.
Test [14] deals with Canis familiaris. The test is described as follows: Equieffective dose for contractility in anesthetized dogs for a maximum dose of 3.0 mg/kg. The class given is functional, Canis lupus familiaris.
The subject of test [15] is Canis familiaris. The test is described as follows: Equieffective dose for heart rate in anesthetized dogs for a maximum dose of 3.0 mg/kg. Values ranges from :0.05-0.2. The class given is functional, Canis lupus familiaris.
Test [16] concerns Canis familiaris. Kind of test: Equieffective dose for mean arterial pressure in anesthetized dogs for a maximum dose of 1.0 mg/kg. Values Ranges From :0.2,0.4. The class given is functional, Canis lupus familiaris, Artery.
Test [17] deals with Canis familiaris. The test is described as follows: Equieffective dose for heart rate in anesthetized dogs for a maximum dose of 1.0 mg/kg. Values Ranges From :0.01-0.8. The class given is functional, Canis lupus familiaris.
The subject of test [18] is Canis familiaris. Kind of test: Equieffective dose for contractility in anesthetized dogs for a maximum dose of 1.0 mg/kg. Values Ranges From :0.02-0.05. The test is classed as functional, Canis lupus familiaris.
Test [19] deals with Canis familiaris. The test is described as follows: Equieffective dose for heart rate in anesthetized dogs for a maximum dose of 1.0 mg/kg. Values Ranges From :0.04-0.3. The test is classed as functional, Canis lupus familiaris.
Test [20] concerns Canis familiaris. Kind of test: Equieffective dose for contractility in anesthetized dogs for a maximum dose of 1.0 mg/kg. Values Ranges From :0.03-0.07. The class given is functional, Canis lupus familiaris.
For test [21], the system named is Canis familiaris. Kind of test: Equieffective dose for mean arterial pressure in anesthetized dogs for a maximum dose of 1.0 mg/kg. Values Ranges From :0.04-1.0. The test is classed as functional, Canis lupus familiaris, Artery.
In test [22] the test system is Canis familiaris. The test is described as follows: Equieffective dose for mean arterial pressure in anesthetized dogs for a maximum dose of 0.1 mg/kg. Values Ranges From :0.02-0.04. The test is classed as functional, Canis lupus familiaris, Artery.
For test [23], the system named is Canis familiaris. Kind of test: Equieffective dose for contractility in anesthetized dogs for a maximum dose of 0.1 mg/kg. Values Ranges From :0.005-0.07. The class given is functional, Canis lupus familiaris.
The test system of test [24] is Canis familiaris. Kind of test: Equieffective dose for heart rate in anesthetized dogs for a maximum dose of 0.1 mg/kg. Values Ranges From :0.009-0.02. The test is classed as functional, Canis lupus familiaris.
Test [25] deals with Canis familiaris. Kind of test: Equieffective dose for heart rate in anesthetized dogs for a maximum dose of 0.3 mg/kg. Values Ranges From :0.02-0.2. The class given is functional, Canis lupus familiaris.
Test [26] has as its system Canis familiaris. Kind of test: Equieffective dose for mean arterial pressure in anesthetized dogs for a maximum dose of 0.3 mg/kg. 0.07-0.3. The class given is functional, Canis lupus familiaris, Artery.
Test [27] relates to Canis familiaris. The test is described as follows: Equieffective dose for contractility in anesthetized dogs for a maximum dose of 0.3 mg/kg. Values Ranges From :0.01-0.2. The class given is functional, Canis lupus familiaris.

This note sets out measurements from ChEMBL document CHEMBL1123800 (J Med Chem, 1987).

What is called IC50 is the concentration at which inhibition is half-maximal. A high value points to weaker potency in that assay. Regarding `CCc1[nH]c(O)nc1C(=O)c1ccc(-c2ncc[nH]2)cc1`, the C20 in [1] amounted to 0.4 µM. In test [2], the IC50 came to 15 µM.
For `CCc1[nH]c(O)nc1C(=O)c1ccc(-n2cc[n+](C)c2C)cc1`, the C20 result in test [3] was “Not reached”. The molecule further came in with an IC50 in test [2] greater than 100 µM.
Molecule `CCc1[nH]c(O)nc1C(=O)c1ccc(Cn2ccnc2)cc1` came in with a C20 in test [1] of 4 µM. The same molecule gave an IC50 in test [2] of 30 µM.
`Cc1cn(-c2ccc(C(=O)c3[nH]c(O)nc3C)cc2)cn1`: the C20 in test [1] was 11 µM. Moreover, the IC50 in test [2] turned out to be 65 µM.
Consider `Cc1[nH]c(O)nc1C(=O)c1ccc(-n2ccnc2C)cc1`, for which, in test [4], the “Contractility (LV dP/dt)” value was 0.3. This molecule also came in with a C20 in test [1] of 1 µM. The same molecule registered an IC50 in [2] of 30 µM. Also, the “Mean arterial blood pressure” value in test [5] is given as 0.6. In test [6], the Heart rate turned out to be 0.8.
As to `CSc1ccc(C(=O)c2[nH]c(=O)[nH]c2C)cc1` [ENOXIMONE], in test [7], the “Mean arterial blood pressure” value turned out to be 2. In addition, the “Contractility (LV dP/dt)” value in [8] is 0.7. Besides, in test [9], the Heart rate is recorded as 0.6. Further, the C20 in test [1] was determined as 3.18 µM.
Take `O=C1CCC(c2ccc(-n3ccnc3)cc2)=NN1` [IMAZODAN]: in test [10], the “Mean arterial blood pressure” value came to 1. The molecule further yielded a C20 in test [1] of 0.3 µM. Besides, the “Contractility (LV dP/dt)” value in test [11] worked out at 0.3. The molecule further gave a Heart rate in [12] of 0.3.
Regarding `Cc1[nH]c(O)nc1C(=O)c1ccc(-n2ccnc2)cc1`, in test [13], the “Mean arterial blood pressure” value is 0.9. This molecule also returned a C20 in test [1] of 0.1 µM. Besides, in test [14], the “Contractility (LV dP/dt)” value is “<=0.1”. Further, in test [15], the Heart rate amounted to 0.1. This molecule showed an IC50 in test [2] of 6 µM.
As to `CCc1[nH]c(O)nc1C(=O)c1ccc(-n2ccnc2C)cc1`, the “Mean arterial blood pressure” value in test [16] is reported as 0.3. The molecule also came in with a Heart rate in test [17] of 0.3. In test [1], this molecule registered a C20 of 0.7 µM. Moreover, in test [18], the “Contractility (LV dP/dt)” value stood at 0.03.
Molecule `Cc1[nH]c(O)nc1C(=O)c1ccc(-n2cnc3ccccc32)cc1` returned a C20 in test [1] of 11 µM. The same molecule had an IC50 in [2] of 20 µM.
The corresponding values for `CCCc1nccn1-c1ccc(C(=O)c2[nH]c(O)nc2CC)cc1` are 1 µM and 29 µM.
The corresponding values for `CCc1[nH]c(O)nc1C(=O)c1ccc(-n2ccnc2C)c(C)c1` are 0.2 µM and 2 µM.
The corresponding values for `Cc1[nH]c(O)nc1C(=O)c1ccc(-c2ncc[nH]2)cc1` are 1.1 µM and 27 µM.
In turn, `CCc1[nH]c(O)nc1C(=O)c1ccc(-n2ccnc2C)cc1C` returned a C20 in [1] of 1.3 µM. This molecule also gave an IC50 in test [2] of 73 µM.
The like results for `CCc1[nH]c(O)nc1C(=O)c1ccc(-n2ccnc2)cc1C` were, in that order, 0.2 µM and 4 µM.
The corresponding values for `Cc1[nH]c(O)nc1C(=O)c1ccc(-n2ccnc2CO)cc1` are 0.4 µM and 49 µM.
`Cc1nc(=O)c(C#N)c(NCc2cccnc2)[nH]1` [PELRINONE]: the Heart rate in [19] is reported as 0.1. Moreover, the “Contractility (LV dP/dt)” value in test [20] came out at 0.04. For the same molecule, the “Mean arterial blood pressure” value in [21] came to 0.4. This molecule came in with a C20 in test [1] of 0.23 µM. In test [2], this molecule showed an IC50 of 4 µM.
Molecule `CCc1[nH]c(O)nc1C(=O)c1ccc(-n2ccnc2)c(C)c1` registered a C20 in test [1] of 0.05 µM. The same molecule showed an IC50 in [2] of 2 µM.
The like results for `CCc1[nH]c(O)nc1C(=O)c1ccc(-n2ccnc2CC)cc1` were, in that order, 0.1 µM and 25 µM.
For `Cc1nc(O)[nH]c1C(=O)c1ccc(-n2c(C)nc(C)c2C)cc1`, the C20 entry in [3] was “Not reached”. The same molecule registered an IC50 in test [2] greater than 100 µM.
`CCc1[nH]c(O)nc1C(=O)c1ccc(-n2cc(C)nc2CC)cc1`: the C20 in test [1] came out at 21 µM. This molecule yielded an IC50 in test [2] of 19 µM.
The like results for `CCc1[nH]c(O)nc1C(=O)c1cccc(-n2ccnc2)c1` were, in that order, 0.1 µM and 23 µM.
For `CCc1[nH]c(O)nc1C(=O)c1ccc(-n2ccnc2)cc1`, in [1], the C20 is 0.063 µM. Besides, in test [22], the “Mean arterial blood pressure” value is 0.03. The IC50 in [2] is 2 µM. Further, the “Contractility (LV dP/dt)” value in [23] is 0.02. The molecule also came in with a Heart rate in test [24] of 0.016.
As to `Cc1[nH]c(=O)c(C#N)cc1-c1ccncc1` [MILRINONE], the Heart rate in [25] was 0.06. Further, the “Mean arterial blood pressure” value in test [26] worked out at 0.2. Besides, the “Contractility (LV dP/dt)” value in [27] is 0.09. In test [1], this molecule had a C20 of 0.57 µM.
For `CCc1[nH]c(O)nc1C(=O)c1ccc(-n2ccnc2C(C)C)cc1`, the C20 in test [1] came to 16.3 µM. In test [2], this molecule returned an IC50 of 40 µM.
`CCc1[nH]c(O)nc1C(=O)c1ccc(-n2ccnc2CCC(C)C)cc1` displayed a C20 in [1] of 21.7 µM. This molecule also returned an IC50 in [2] of 7 µM.
